According to the supplement of paper PMC4862054:
“And” between values parts separate entries of the source, which are not always exact repeats. Equal entries are not always repeated.

Experiments:
DU-4475 [1] = assay: normalised viability (% of control), CellTiter-Blue; higher = more viable cells (about 100 = DMSO control); conditions: 10 nM; incubation time: 72 h
Method: (§1)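 DSRT, CellTiter-Blue viability, 72 h incubation. Signal is normalised to DMSO and benzethonium chloride controls. Value is the normalised response at dose 3.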

MFM-223 = assay: as above; conditions: 100 nM; incubation time: 72 h
Method: as §1

BT-549 = assay: as above; conditions: 100 nM; incubation time: 72 h
Method: as §1

CAL-85-1 = assay: as above; conditions: 10 nM; incubation time: 72 h
Method: as §1

CAL-120 = assay: as above; conditions: 100 nM; incubation time: 72 h
Method: as §1

CAL-148 [2] = assay: as above; conditions: 10 nM; incubation time: 72 h
Method: as §1

HCC1937 [3] = assay: as above; conditions: 100 nM; incubation time: 72 h
Method: as §1

MDA-MB-231 [4] = assay: as above; conditions: 100 nM; incubation time: 72 h
Method: as §1

Hs578T [5] = assay: as above; conditions: 100 nM; incubation time: 72 h
Method: as §1

MDA-MB-453 [6] = assay: as above; conditions: 10 nM; incubation time: 72 h
Method: as §1

BT-474 [7] = assay: as above; conditions: 100 nM; incubation time: 72 h
Method: as §1

MDA-MB-436 = assay: as above; conditions: 100 nM; incubation time: 72 h
Method: as §1

CAL-51 [8] = assay: as above; conditions: 10 nM; incubation time: 72 h
Method: as §1

MDA-MB-468 [9] = assay: as above; conditions: 100 nM; incubation time: 72 h
Method: as §1

HCC1143 [10] = assay: as above; conditions: 100 nM; incubation time: 72 h
Method: as §1

HCC1599 [11] = assay: as above; conditions: 100 nM; incubation time: 72 h
Method: as §1

DU-4475 [12] = assay: drug sensitivity score (DSS), CellTox Green (DSS (AUC-based score)); higher = stronger drug effect (viability inhibition or cytotoxicity); extreme values may be limits of the assay; conditions: incubation time: 72 h
In short: (§2)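 A drug sensitivity score was derived from the area under each fitted dose-response curve. Breast cancer cells (20 µl suspension) were seeded onto compound in 384-well plates, using 5 concentrations 10-fold apart over a compound-specific 10,000-fold range, and incubated 72 h. Readouts were CellTox Green fluorescence and then CellTiter-Glo luminescence, with every plate normalised to 0.1 % DMSO and a positive kill control.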

HDQ-P1 = assay: as above; conditions: incubation time: 72 h
In short: as §2

CAL-148 [13] = assay: as above; conditions: incubation time: 72 h
In short: as §2

HCC1937 [14] = assay: as above; conditions: incubation time: 72 h
In short: as §2

MDA-MB-231 [15] = assay: as above; conditions: incubation time: 72 h
In short: as §2

MCF-10A = assay: as above; conditions: incubation time: 72 h
In short: as §2

Hs578T [16] = assay: as above; conditions: incubation time: 72 h
In short: as §2

MDA-MB-453 [17] = assay: as above; conditions: incubation time: 72 h
In short: as §2

BT-474 [18] = assay: as above; conditions: incubation time: 72 h
In short: as §2

CAL-51 [19] = assay: as above; conditions: incubation time: 72 h
In short: as §2

MDA-MB-468 [20] = assay: as above; conditions: incubation time: 72 h
In short: as §2

HCC1143 [21] = assay: as above; conditions: incubation time: 72 h
In short: as §2

HCC1599 [22] = assay: as above; conditions: incubation time: 72 h
In short: as §2

Structure (SMILES) | normalised viability (DU-4475 [1]) | normalised viability (MFM-223) | normalised viability (BT-549) | normalised viability (CAL-85-1) | normalised viability (CAL-120) | normalised viability (CAL-148 [2]) | normalised viability (HCC1937 [3]) | normalised viability (MDA-MB-231 [4]) | normalised viability (Hs578T [5]) | normalised viability (MDA-MB-453 [6]) | normalised viability (BT-474 [7]) | normalised viability (MDA-MB-436) | normalised viability (CAL-51 [8]) | normalised viability (MDA-MB-468 [9]) | normalised viability (HCC1143 [10]) | normalised viability (HCC1599 [11]) | drug sensitivity score (DU-4475 [12]) | drug sensitivity score (HDQ-P1) | drug sensitivity score (CAL-148 [13]) | drug sensitivity score (HCC1937 [14]) | drug sensitivity score (MDA-MB-231 [15]) | drug sensitivity score (MCF-10A) | drug sensitivity score (Hs578T [16]) | drug sensitivity score (MDA-MB-453 [17]) | drug sensitivity score (BT-474 [18]) | drug sensitivity score (CAL-51 [19]) | drug sensitivity score (MDA-MB-468 [20]) | drug sensitivity score (HCC1143 [21]) | drug sensitivity score (HCC1599 [22])
COc1ccc(S(=O)(=O)Nc2cccnc2Nc2ccc(O)cc2)cc1 [ABT-751] | 109% | 91% | 89% | 88.8% | 93% | 90.4% | 92.4% | 91.4% | 88.1% | 87% | 112% | 108% | 113% | 101% | 87.2% | 102% | 0 | 0 | 0 | 0 | 8.51 | 4 | 7.06 | 0 | 0 | 1.79 | 4.39 | 0 | 0
CC(C)C[C@H](NC(=O)[C@@H](COC(C)(C)C)NC(=O)[C@H](Cc1ccc(O)cc1)NC(=O)[C@H](CO)NC(=O)[C@H](Cc1c[nH]c2ccccc12)NC(=O)[C@H](Cc1cnc[nH]1)NC(=O)[C@@H]1CCC(=O)N1)C(=O)N[C@@H](CCCNC(=N)N)C(=O)N1CCC[C@H]1C(=O)NNC(N)=O [Goserelin] | 96.2% | 91.3% | 102% | 102% | 107% | 101% | 104% | 91.8% | 113% | 102% | 115% | 102% | 113% | 101% | 87.3% | 94.4% | 0 | 0.917 | 0 | 0 | 0 | 0 | 1.59 | 0 | 0.105 | 0 | 0 | 0 | 0
O=C(CCCCCCC(=O)Nc1ccccc1)NO [Vorinostat] | 109% | 103% and 97.1% | 106% and 90% | 109% and 96.3% | 79.2% and 93.3% | 88.3% and 92.3% | 98.6% and 84.2% | 97.9% and 86.1% | 74.4% and 83.6% | 115% and 97.7% | 87.5% and 93.6% | 107% and 95.4% | 107% and 93.5% | 104% and 97.3% | 94.1% and 114% | 101% and 111% | 0 | 0 | 1.45 | 0 | 8.86 | 0 | 4.59 | 0 | 2.68 | 6.5 | 2.22 | 1.23 | 0
CC(C)(C)NC(=O)[C@H]1CC[C@H]2[C@@H]3CC[C@H]4NC(=O)C=C[C@]4(C)[C@H]3CC[C@]12C [Finasteride] | 107% | 95.1% | 107% | 97% | 108% | 93.2% | 91% | 94.2% | 105% | 103% | 125% | 110% | 109% | 103% | 107% | 106% | 0 | 0 | 0 | 0 | 0 | 0 | 2.04 | 0 | 0 | 0 | 0 | 0 | 0
Cc1cn(-c2cc(NC(=O)c3ccc(C)c(Nc4nccc(-c5cccnc5)n4)c3)cc(C(F)(F)F)c2)cn1 [Nilotinib] | 98.8% and 104% | 99.6% and 95.5% | 95.6% and 88.2% | 93.2% and 92.5% | 80.1% and 86.2% | 89.9% and 90.2% | 90.7% and 85.8% | 80.4% and 89.5% | 78.3% and 89.4% | 94% and 89% | 104% and 102% | 100% and 93.8% | 109% and 111% | 95.9% and 102% | 94.3% and 91.8% | 113% and 111% | 0 | 0 | 0 | 0 | 3.55 | 0 | 0.546 | 0 | 0 | 0 | 0 | 0 | 0
